Laboratory results taken from patent US12721838B2 (Henry Ford Health System, priority 2020, dated 2026).
“And” between values parts separate entries of the source, which are not always exact repeats. Equal entries are not always repeated. Where two headings read alike, the source gives them in different places.

Key:
[1] = tested on: ERPC tumors (LNCaP-ENR cells)
Method: BALB/c nude mice were subcutaneously injected with the LNCaP-ENR cells (1×10^6 cells per mouse) to develop tumors. Once the tumors reached a size of ~100 cubic mm, the mice were treated with 30 mg/kg/day DCV or a solution of DMSO:cremophor:PBS at 1:1:8 ratio, orally for four weeks (n=3). Tumor size and body weights were measured once per week. Tumor volumes were calculated using the following formula:
[formula] • Wherein “TV” means tumor volume; • “a” is the long diameter of a tumor; and • “b” is the short diameter of a tumor.
Tumor samples were collected at 4 weeks post-treatment, and TRIB2 protein levels in the tumors were determined by immunohistochemistry (IHC) using monoclonal anti-Trib2 antibody (Santa Cruz Bio, Santa Cruz, CA; Cat. No.: 100878) at 1:100.

LNCaP-ENR cells = test: Apoptosis by Annexin V binding, flow cytometry; type: cell-based, human; details: LNCaP-ENR cells, 8 μM, 24 hours, flow cytometry
Method: To test DCV effects on cancer cell apoptosis, LNCaP-ENR cells were treated with 8 μM DCV for 24 hours and analyzed by flow cytometry. Treatment with DCV indicated increased Annexin V binding, a read-out for apoptosis (FIG. 3C).

p-glycoprotein (PGP) = p-glycoprotein (PGP) (Homo sapiens, UniProt P08183); details: cited from earlier work
Sequence of p-glycoprotein (PGP) (P08183 whole entry): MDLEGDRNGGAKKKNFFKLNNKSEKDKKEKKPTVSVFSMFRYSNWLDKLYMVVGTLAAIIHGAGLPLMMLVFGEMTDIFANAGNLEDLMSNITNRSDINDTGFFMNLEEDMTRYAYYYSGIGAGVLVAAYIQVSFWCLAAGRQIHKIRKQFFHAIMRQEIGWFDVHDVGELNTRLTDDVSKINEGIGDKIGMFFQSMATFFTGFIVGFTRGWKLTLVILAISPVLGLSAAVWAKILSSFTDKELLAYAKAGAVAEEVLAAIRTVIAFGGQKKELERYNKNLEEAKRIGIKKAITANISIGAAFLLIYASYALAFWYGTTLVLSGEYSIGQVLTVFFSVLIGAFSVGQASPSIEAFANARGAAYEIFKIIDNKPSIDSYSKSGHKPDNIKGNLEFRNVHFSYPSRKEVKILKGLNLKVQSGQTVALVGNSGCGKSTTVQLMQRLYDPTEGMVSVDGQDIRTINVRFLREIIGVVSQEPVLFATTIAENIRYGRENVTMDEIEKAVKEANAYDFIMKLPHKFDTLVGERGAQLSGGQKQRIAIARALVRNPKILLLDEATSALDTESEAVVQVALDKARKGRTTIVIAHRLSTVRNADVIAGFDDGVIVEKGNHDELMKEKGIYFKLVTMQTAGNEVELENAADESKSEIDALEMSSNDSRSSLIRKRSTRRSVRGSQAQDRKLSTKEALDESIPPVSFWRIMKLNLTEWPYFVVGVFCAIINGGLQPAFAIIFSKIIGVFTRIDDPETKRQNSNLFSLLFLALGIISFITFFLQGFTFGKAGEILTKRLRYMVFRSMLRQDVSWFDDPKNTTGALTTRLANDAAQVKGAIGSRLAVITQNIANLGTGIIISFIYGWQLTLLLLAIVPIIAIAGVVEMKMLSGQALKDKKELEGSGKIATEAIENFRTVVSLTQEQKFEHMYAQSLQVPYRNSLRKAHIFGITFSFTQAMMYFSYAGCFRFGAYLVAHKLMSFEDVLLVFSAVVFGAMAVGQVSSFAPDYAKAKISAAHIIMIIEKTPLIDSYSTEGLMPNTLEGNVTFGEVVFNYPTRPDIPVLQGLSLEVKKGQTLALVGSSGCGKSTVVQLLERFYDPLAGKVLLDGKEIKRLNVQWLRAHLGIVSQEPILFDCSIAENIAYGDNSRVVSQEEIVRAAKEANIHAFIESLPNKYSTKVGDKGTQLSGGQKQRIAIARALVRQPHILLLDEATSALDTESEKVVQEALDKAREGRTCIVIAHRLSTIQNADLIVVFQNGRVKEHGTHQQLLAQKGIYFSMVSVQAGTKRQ

Trib2-OE cells = test: Enzalutamide sensitivity of Trib2-overexpressing prostate cancer cells; type: cell-based, human; details: Trib2-OE cells, DCV 6 μM
Description: Prostate cancer cells were transfected with full length human gene to overexpress Trib2 (FIG. 18). […] Trib2 siRNA was used in parallel experiments as a positive control.

[2] = tested on: NCI-H226, SK-MES-1, NCI-H2228 and NCI-H596 lung cancer cell lines; test: 72-hour cell viability assay in lung cancer cell lines; type: cell-based, human
c-JNK, caspase 3 = test: Activation of c-JNK and caspase 3; type: cell-based, human; details: LNCaP-ENR cells
Method: To explore the underlying mechanism of DCV-induced apoptosis in ERPC cells, the effect of DCV on Jun N-terminal kinases (JNKs) was analyzed. JNKs play a critical role in apoptotic pathways. […] Both caspase-dependent and caspase-independent apoptotic cell death processes are known.

[3] = cited from earlier work
luciferase = target: T1, luciferase (Renilla reniformis, UniProt P27652); test: Counter-screen with control luciferase-transfected HFF cells; type: cell-based
T1 construct: expressed in transfected cells; host or cells: human foreskin fibroblasts (HFF)
T1 sequence (P27652 1-311): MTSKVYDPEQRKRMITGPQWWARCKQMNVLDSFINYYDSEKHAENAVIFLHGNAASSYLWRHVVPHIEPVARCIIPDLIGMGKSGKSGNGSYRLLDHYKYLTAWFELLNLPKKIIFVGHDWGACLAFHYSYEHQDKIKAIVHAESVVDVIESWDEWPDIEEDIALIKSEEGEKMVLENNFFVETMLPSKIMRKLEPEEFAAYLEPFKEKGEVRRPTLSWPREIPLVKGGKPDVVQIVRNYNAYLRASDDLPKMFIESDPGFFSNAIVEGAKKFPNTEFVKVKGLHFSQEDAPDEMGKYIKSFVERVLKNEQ
Method: Human foreskin fibroblast cells (HFF) cells were transfected with a Trib2-Luciferase (Luc-Trib2) fusion construct. Cells were plated in 96-well tissue culture plates and treated with compounds (10 μM) for 24 hours. Luciferase activity was measured using an EnduRen™ Live cell substrate kit (commercially available from PROMEGA CORP.®, Madison, WI). […] For further development, selected compounds were counter-screened with control luciferase-transfected HFF cells.
The main hurdle to develop agents to inhibit Trib2 is the lack of a quick and easy assay procedure to effectively screen large number of compounds. To overcome this problem, the present disclosure provides a design for a new assay system to measure the active state of Trib2 protein. The present disclosure describes a Trib2-luciferase gene construct by combining the full length human Trib2 gene with the luciferase gene from Renilla. Destabilization of the three-dimensional conformation of the resultant Trib2-luc fusion protein can deliver reportable outcome via alteration in the enzymatic activity of luciferase. A second screen was designed to eliminate compounds that affects the activity of only luciferase. […] Thus, the luciferase-based assay system (involving first screen and a counter-screen) of the present disclosure emerges as an effective way to identify Trib2-targeting drugs using simple gene transfected cell lines in culture.
Here, the screening strategy used to select compounds based on inhibition of luciferase activity in Trib2-Luc cells, but not in Luc cells. Compounds screened included a representative set of 104 FDA-approved compounds on Trib2-Luciferase fusion construct-transfected HFF cells are shown here. Cells were treated with compounds (10 μM) for 24 hours and measured luciferase activity using a kit from Promega Corp. (Madison, WI). For further development selected compounds are counter-screened with control luciferase-transfected HFF cells.

COC(=O)N[C@H](C(=O)N1CCC[C@H]1c1nc(-c2ccc(-c3ccc(-c4c[nH]c([C@@H]5CCCN5C(=O)[C@@H](NC(=O)OC)C(C)C)n4)cc3)cc2)c[nH]1)C(C)C [Daclatasvir, 4,4′-bis[2-((2S)-1-{(2S)-2-[(methoxycarbonyl)amino]-3-methylbutanoyl}-2-pyrrolidinyl)-1H-imidazol-4-yl]-1,1′-biphenyl]
Tumor volumes ([1]; 30 mg/kg/day orally for four weeks, vs vehicle-treated animals): significantly reduced | TRIB2 protein levels in tumors by IHC ([1]; 30 mg/kg/day orally, 4 weeks): reduced | Annexin V binding (LNCaP-ENR cells): increased | action on p-glycoprotein (PGP) (p-glycoprotein (PGP)): inhibitor | re-sensitization of resistant cells to enzalutamide (Trib2-OE cells): re-sensitizes resistant cells to enzalutamide | killing of lung cancer cells [2]: effectively kills | activation of caspase 3 (c-JNK, caspase 3): induces activation | activation of c-JNK (c-JNK, caspase 3; dose-dependent): rapid and robust activation | tolerability ([3]; 100 mg po daily): well tolerated | median peak plasma concentration ([3]; after one dose of 60 mg, listed as DCV): ~ 2 μg/ml and 2.5 μM | mean terminal half-life ([3]; in vivo): 12 to 15 h | time to peak plasma concentrations after dosing ([3]; in vivo): 1 to 2 h | time to steady state levels ([3]; in vivo): after three days of administration | inhibition of control luciferase activity (counter-screen, without Trib2) (luciferase): passed counter-screen tests | inhibition of control luciferase activity (counter-screen, without Trib2) (luciferase; listed as DCV): does not inhibit control luciferase activity | inhibition of control luciferase activity (counter-screen, without Trib2) (luciferase; listed as daclatasvir): does not inhibit luciferase activity in the absence of Trib2
